Values quoted from earlier work in patent US20160280572A1, “POLYMERS FOR FLOCCULATION, DEWATERING AND CONSOLIDATION OF OIL SANDS FLUID FINE TAILINGS, MINE TAILINGS AND SOLID PARTICULATE SUSPENSIONS” (THE GOVERNORS OF THE UNIVERSITY OF ALBERTA, priority 2015, published 2016).
Converted amounts (≈) assume the structure as drawn.

Details: in water, 20 Celsius
For `C=CC#N` [Acrylonitrile], the Solubility is given as 70 mg/mL (≈ 1320 mM).
For `C=COC(C)=O` [vinyl acetate], the Solubility is given as 25 mg/mL.
In the case of `C=C(C)C(=O)OC` [methyl methacrylate], the Solubility is given as 16 mg/mL (≈ 160 mM).
In the case of `C=Cc1ccccc1` [styrene], the Solubility is listed as 0.3 mg/mL (≈ 2.88 mM).
For `C=C(C)C(N)=O` [Methacrylamide], the Solubility is given as 202 mg/mL (≈ 2370 mM).
In the case of `C=CC(=O)OC` [methyl acrylate], the Solubility is given as 60 mg/mL (≈ 697 mM).

Same assay, conditions: in water, temperature Not Listed
For `C=C(C)C(=O)OCCCC` [butyl methacrylate], the Solubility is listed as 6 mg/mL (≈ 42.2 mM).
